Measurements published in the supplement of paper PMC10307832.

Key:
Experiment in all cases: relative viability (nuclei count vs DMSO), 5 days (fraction); higher = more cells survive
EKVX = test system: EKVX
Procedure, shortened: (§1)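 Values are medians from duplicate plates. Each reflects relative viability, defined as the nuclei count of treated wells over that of vehicle wells. Lung cancer cell lines in 1536-well plates were pin-tool dosed one day after seeding with one drug alone or with a fixed anchor-drug dose plus five library-drug doses (not always all listed) in √10 steps, then fixed, stained and imaged at 4× after 5 days.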

EMC-BAC-2 = test system: EMC-BAC-2
Procedure, shortened: as §1

H3255 = test system: H3255
Procedure, shortened: as §1

HARA = test system: HARA
Procedure, shortened: as §1

HCC-15 = test system: HCC-15
Procedure, shortened: as §1

HCC-827 = test system: HCC-827
Procedure, shortened: as §1

LC-2-ad = test system: LC-2-ad
Procedure, shortened: as §1

LCLC-97TM1 = test system: LCLC-97TM1
Procedure, shortened: as §1

LU99A = test system: LU99A
Procedure, shortened: as §1

NCI-H1437 = test system: NCI-H1437
Procedure, shortened: as §1

NCI-H1792 = test system: NCI-H1792
Procedure, shortened: as §1

NCI-H1793 = test system: NCI-H1793
Procedure, shortened: as §1

NCI-H1915 = test system: NCI-H1915
Procedure, shortened: as §1

NCI-H1944 = test system: NCI-H1944
Procedure, shortened: as §1

NCI-H2126 = test system: NCI-H2126
Procedure, shortened: as §1

NCI-H23 = test system: NCI-H23
Procedure, shortened: as §1

NCI-H322M = test system: NCI-H322M
Procedure, shortened: as §1

NCI-H460 = test system: NCI-H460
Procedure, shortened: as §1

NCI-H661 = test system: NCI-H661
Procedure, shortened: as §1

PC-3 [JPC-3] = test system: PC-3 [JPC-3]
Procedure, shortened: as §1

SK-LU-1 = test system: SK-LU-1
Procedure, shortened: as §1

Cc1cnc(-c2cnc(NCCNc3ccc(C#N)cn3)nc2-c2ccc(Cl)cc2Cl)[nH]1 + CS(=O)(=O)CCNCc1ccc(-c2ccc3ncnc(Nc4ccc(OCc5cccc(F)c5)c(Cl)c4)c3c2)o1 [Lapatinib] (partner 2 µM)
relative viability (EKVX; first compound 0.08 µM): 0.235 | relative viability (EKVX; first compound 0.253 µM): 0.222 | relative viability (EKVX; first compound 2.53 µM): 0.224 | relative viability (EMC-BAC-2; first compound 0.08 µM): 1.02 | relative viability (EMC-BAC-2; first compound 0.253 µM): 0.808 | relative viability (EMC-BAC-2; first compound 0.8 µM): 0.887 | relative viability (EMC-BAC-2; first compound 2.53 µM): 0.859 | relative viability (H3255; first compound 0.08 µM): 0.28 | relative viability (H3255; first compound 0.253 µM): 0.249 | relative viability (H3255; first compound 0.8 µM): 0.219 | relative viability (H3255; first compound 2.53 µM): 0.244 | relative viability (HARA; first compound 0.08 µM): 1.03 | relative viability (HARA; first compound 0.253 µM): 0.598 | relative viability (HARA; first compound 0.8 µM): 0.799 | relative viability (HARA; first compound 2.53 µM): 0.607 | relative viability (HCC-15; first compound 0.08 µM): 0.813 | relative viability (HCC-15; first compound 0.253 µM): 0.577 | relative viability (HCC-15; first compound 0.8 µM): 0.903 | relative viability (HCC-15; first compound 2.53 µM): 0.843 | relative viability (HCC-827; first compound 0.08 µM): 0.189 | relative viability (HCC-827; first compound 0.8 µM): 0.213 | relative viability (HCC-827; first compound 2.53 µM): 0.179 | relative viability (LC-2-ad; first compound 0.08 µM): 1.06 | relative viability (LC-2-ad; first compound 0.8 µM): 0.761 | relative viability (LC-2-ad; first compound 2.53 µM): 0.898 | relative viability (LCLC-97TM1; first compound 0.08 µM): 1.1 | relative viability (LCLC-97TM1; first compound 0.253 µM): 0.883 | relative viability (LCLC-97TM1; first compound 0.8 µM): 1.07 | relative viability (LCLC-97TM1; first compound 2.53 µM): 0.745 | relative viability (LU99A; first compound 0.08 µM): 1.06 | relative viability (LU99A; first compound 0.253 µM): 0.879 | relative viability (LU99A; first compound 0.8 µM): 1.06 | relative viability (LU99A; first compound 2.53 µM): 1.04 | relative viability (NCI-H1437; first compound 0.08 µM): 0.848 | relative viability (NCI-H1437; first compound 0.253 µM): 0.715 | relative viability (NCI-H1437; first compound 0.8 µM): 0.805 | relative viability (NCI-H1437; first compound 2.53 µM): 0.793 | relative viability (NCI-H1792; first compound 0.08 µM): 0.927 | relative viability (NCI-H1792; first compound 0.253 µM): 0.756 | relative viability (NCI-H1792; first compound 0.8 µM): 0.862 | relative viability (NCI-H1792; first compound 2.53 µM): 0.866 | relative viability (NCI-H1793; first compound 0.08 µM): 0.608 | relative viability (NCI-H1793; first compound 0.253 µM): 0.678 | relative viability (NCI-H1793; first compound 0.8 µM): 0.721 | relative viability (NCI-H1793; first compound 2.53 µM): 1.02 | relative viability (NCI-H1915; first compound 0.08 µM): 0.985 | relative viability (NCI-H1915; first compound 0.8 µM): 0.947 | relative viability (NCI-H1915; first compound 2.53 µM): 1.04 | relative viability (NCI-H1944; first compound 0.08 µM): 0.858 | relative viability (NCI-H1944; first compound 0.8 µM): 0.776 | relative viability (NCI-H1944; first compound 2.53 µM): 0.872 | relative viability (NCI-H2126; first compound 0.08 µM): 0.753 | relative viability (NCI-H2126; first compound 0.253 µM): 0.728 | relative viability (NCI-H2126; first compound 0.8 µM): 0.786 | relative viability (NCI-H2126; first compound 2.53 µM): 0.741 | relative viability (NCI-H23; first compound 0.08 µM): 1.14 | relative viability (NCI-H23; first compound 0.253 µM): 1.02 | relative viability (NCI-H23; first compound 0.8 µM): 1.07 | relative viability (NCI-H23; first compound 2.53 µM): 1.11 | relative viability (NCI-H322M; first compound 0.08 µM): 0.575 | relative viability (NCI-H322M; first compound 0.253 µM): 0.565 | relative viability (NCI-H322M; first compound 0.8 µM): 0.594 | relative viability (NCI-H322M; first compound 2.53 µM): 0.555 | relative viability (NCI-H460; first compound 0.08 µM): 0.943 | relative viability (NCI-H460; first compound 0.253 µM): 0.826 | relative viability (NCI-H460; first compound 0.8 µM): 0.864 | relative viability (NCI-H460; first compound 2.53 µM): 0.775 | relative viability (NCI-H661; first compound 0.08 µM): 0.523 | relative viability (NCI-H661; first compound 0.253 µM): 0.452 | relative viability (NCI-H661; first compound 0.8 µM): 0.449 | relative viability (NCI-H661; first compound 2.53 µM): 0.54 | relative viability (PC-3 [JPC-3]; first compound 0.08 µM): 0.498 | relative viability (PC-3 [JPC-3]; first compound 0.253 µM): 0.449 | relative viability (PC-3 [JPC-3]; first compound 0.8 µM): 0.419 | relative viability (PC-3 [JPC-3]; first compound 2.53 µM): 0.474 | relative viability (SK-LU-1; first compound 0.08 µM): 0.87 | relative viability (SK-LU-1; first compound 0.253 µM): 0.96 | relative viability (SK-LU-1; first compound 0.8 µM): 0.999 | relative viability (SK-LU-1; first compound 2.53 µM): 1.11
